From patent US20020123524A1, “Treatment of vascular events using lipid-modifying compositions” (priority 1998, published 2002)

Columns and labels:
[1] = VA-HIT trial: percent change in plasma lipids with gemfibrozil vs placebo; format: in vivo, men; conditions: for Effect on HDL-C level (in words): compared to controls treated with placebo
Protocol: Lipoproteins levels and triglyceride levels are measured and assessed using routine methods known in the art. Commercially available kits and assays may be used to evaluate the level of HDL-C, LDL-C and level of triglyceride.
(§1) This study, the Veterans Administration HDL-C Intervention Trial (VA-HIT), was a seven year, 20 center, randomized, placebo-controlled, double blind secondary prevention trial designed to determine if a fibric acid (e.g., gemfibrozil) reduced the incidence of myocardial infarction (MI) and CHD death in male patients who have low levels of both HDL-C and LDL-C. […] Primary endpoints and the secondary endpoint, stroke, were adjudicated by blinded committees using standard criteria. Gemfibrozil (1200mg/day, orally) was selected with the goal of raising HDL-C and lowering triglycerides (TG) without affecting LDL-C.
(§2) “Low HDL-C” was defined as less than 40 mg/dL and “low LDL-C” was defined as less than 140 mg/dL values which are based on the entrance lipid criteria for the population enrolled in VA-HIT. With these lipid criteria, the mean entrance value at baseline of HDL-C was 32 mg/dL and of LDL-C was 111 mg/dL.
(§3) 2531 patients were enrolled and followed for a median of 5 years. Compliance, lipid changes, endpoints rates, losses to follow-up, and crossovers to active treatment have been consistent with the original projections. At baseline, the mean age was 64 yrs; average lipid values were, in mg/dL: HDL-C 32; TG 161; LDL-C 111; total cholesterol 176. (For comparison, the mean baseline LDL-C in recent major secondary prevention trials was 189 in the Scandinavian Simvastatin Survival Study, 139 in the Cholesterol and Recurrent Events study, and 150 in the Long-Term Intervention with Pravastatin in Ischemic Disease study). The mean body mass index was 29±5. The prevalence of diabetes was 31% and of hypertension 57%. Aspirin and beta blockers were used by 82%, and 43% of patients, respectively.
(§4) VA-HIT was a major clinical trial to investigate whether lipid therapy benefits people with heart disease whose primary lipid abnormality is a low level of HDL-C. The VA-HIT study enrolled 2531 male veterans with heart disease who had low levels of LDL-C cholesterol and low levels of HDL-C cholesterol. The average LDL-C level was 111 mg/dL and HDL-C was 32 mg/dL. Patients were randomly assigned to receive either gemfibrozil or a placebo.
(§5) 2531 men with CHD enrolled in trial 1991-1993. The trial ended 7/31/98 with median follow-up of 5.1 years. Vital status of patients known is 99.2%. 71% remained on assigned therapy at end of trial which is about the average in a long trial.

[2] = VA-HIT subgroup analysis: diabetes and hyperinsulinemia, CHD and stroke events, mortality; format: in vivo, men; parameters: Overall Risk Reduction with Gemfibrozil (cardiovascular or cerebrovascular event) / Overall Risk Reduction with Gemfibrozil: concentration or dose not given beside the values; conditions: for Five Year Event Rate, Stroke / Five Year Event Rate, CHD: Gemfibrozil Group
Description: Determining whether an individual has Type 2 diabetes and/or hyperinsulinemia can be done using assays that are well known in the art. Several assays are commercially available. The levels that define whether an individual has Type 2 diabetes or hyperinsulinemia vary depending on the type of assay used. An example of an assay that can measure glucose tolerance or glucose levels is one that uses glucose oxidase as a reagent. Using such a test, levels of fasting glucose of greater than or equal to about 126 mg/dL characterize a type 2 diabetic. An assay referred to as “Coat-A-Count” (Diagnostic Products, Los Angeles, Calif.) is an example of an assay that measures insulin. Levels of fasting insulin above about 40 μU/mL using the Coat-A-Count assay are levels that characterize an individual with hyperinsulinemia. For the data described in Example 2, insulin resistance (hyperinsulinemia) was defined by the levels of insulin determined in the Framingham Offspring Population. Meigs J B, et al., Metabolic Risk Factors Worsen Continuously Across the Spectrum of Nondiabetic Glucose Tolerance, The Framingham Offspring Study. Ann Intern Med 128:524-533 (1998). Subjects, described in Example 2, were designated as diabetic by having a history of diabetes or a fasting plasma glucose of about 126 mg/dL or greater and as being hyperinsulinemic with a fasting plasma insulin of about 40 μU/mL or greater. This value of insulin marked the 90th percentile of values for subjects with normal glucose tolerance in the Framingham Offspring Study. This value also corresponded to the level of insulin at which there was a significant increase in CHD events in Example 2.
Fibric acid decreases incidence of vascular events in diabetic patients (e.g., events that cause the heart to have irregular rhythms such as ventricular fibrillation, ventricular tachycardia, asystole, and includes, for example, myocardial infarction, angina, and death).
Diabetes mellitus (DM) has long been recognized as a major risk factor for a vascular atherothrombotic event, most particularly coronary heart disease and cerebrovascular disease. […] Although patients with DM were not singled out as a specific recruitment target (i.e., not a specific target for fibrate therapy in VA-HIT), patients with DM frequently have a low HDL-C and, thus, were clearly eligible for VA-HIT and treatment with the fibrate, genfibrozil.
Thus, 31% of VA-HIT patients had diabetes. […] There is evidence that patients with high insulin levels (i.e., patients with “hyperinsulinemia” or “insulin resistance”) but without overt DM have as high a risk of coronary heart disease as is associated with DM itself. Consequently, 47% of patients in VA-HIT had either DM or hyperinsulinemia and in this large subgroup of patients, both coronary heart disease (CHD) events and stroke were higher than in the remainder of VA-HIT patients and the benefit of fibrate therapy was greater.

[3] = VA-HIT trial: CHD death, nonfatal MI, stroke and other clinical endpoints, adverse events; format: in vivo; conditions: for Relative risk reduction, CHD death/nonfatal MI (heart attacks and cardiac deaths): primary endpoint, p=0.0063
Description: as §1, §2, §3, §4
The reduction in the incidence or severity of vascular disease was determined by comparing data from individuals undergoing the methods of the present invention to those who were not. Data regarding the incidence or occurrence of a vascular event including death were obtained from control patients having the same or similar disease states under the same or similar conditions as the individual undergoing the methods of the present invention. The control patient received a placebo, as opposed to the test patients who received the lipid modifying drug.
as §5

[4] = gemfibrozil 1200 mg/day orally, men with CHD, low HDL-C and low LDL-C, statistically significant difference vs placebo

Compound: Cc1ccc(C)c(OCCCC(C)(C)C(=O)O)c1 [Gemfibrozil, 5-(2,5-dimethylphenoxy)-2,2-dimethylpentanoic acid]
- Effect on HDL-C level (in words) [1]: significantly raised
- Effect on HDL-C level (in words) ([1]; listed as gemfibrozil): significantly increased
- Effect on LDL-C level (in words) ([1]; compared to placebo): did not lower
- Effect on triglycerides (in words) ([1]; compared to placebo): lowered
- Effect on LDL-C level (in words) ([1]; compared to placebo, listed as gemfibrozil): no effect
- Percent change in Lipids: LDL-C ([1]; gemfibrozil 1200 mg/day orally, men with CHD, low HDL-C and low LDL-C, not marked significant): +3.6%
- Percent change in Lipids: HDL-C [1, 4]: +7.5%
- Percent change in Lipids: Triglycerides [1, 4]: −24.5%
- Percent change in Lipids: total cholesterol [1, 4]: −2.9%
- RRR (relative risk reduction with gemfibrozil), All-Cause Mortality ([2]; Diabetes + Hyperinsulinemia alone, N 1157, P 0.021): 26%
- RRR (relative risk reduction with gemfibrozil), CHD Death ([2]; Diabetes, N 769, P 0.016): 41%
- RRR (relative risk reduction with gemfibrozil), All-Cause Mortality ([2]; Diabetes, N 769, P 0.059): 25%
- Five Year Event Rate, Stroke ([2]; subgroup All Others, placebo 4.0): 3.2%
- Five Year Event Rate, CHD ([2]; subgroup All Others, placebo 16.6): 15.3%
- Five Year Event Rate, Stroke ([2]; subgroup Diabetes, placebo 10.5): 6.6%
- Five Year Event Rate, CHD ([2]; subgroup Diabetes, placebo 29.4): 21.2%
- Five Year Event Rate, Stroke ([2]; subgroup Hyperinsulinemia (includes hyperinsulinemia + diabetes), placebo 8.1): 6.2%
- Five Year Event Rate, CHD ([2]; subgroup Hyperinsulinemia (includes hyperinsulinemia + diabetes), placebo 27.7): 20.9%
- Five Year Event Rate, Stroke ([2]; subgroup Hyperinsulinemia alone, placebo 4.3): 4.7%
- Five Year Event Rate, CHD ([2]; subgroup Hyperinsulinemia alone, placebo 23.1): 16.8%
- 5-year incidence rate of all-cause mortality (in words) ([2]; patients with DM and isolated hyperinsulinemia analysed together): significantly reduce
- Overall Risk Reduction with Gemfibrozil ([2]; subgroup All Others): 10.3%
- Overall Risk Reduction with Gemfibrozil (cardiovascular or cerebrovascular event) ([2]; subgroup Diabetes): 30.3%
- Overall Risk Reduction with Gemfibrozil ([2]; subgroup Hyperinsulinemia (includes hyperinsulinemia + diabetes)): 24.2%
- Overall Risk Reduction with Gemfibrozil ([2]; subgroup Hyperinsulinemia alone): 21.7%
- Reduction of CHD death (in words) ([2]; subgroup of patients with DM and hyperinsulinemia): particularly effective
- Effectiveness in subgroups (in words) ([3]; both diabetics and non-diabetics, younger as well as older patients): effective
- New or recurrent CHD events, including nonfatal MI, CHD death, certain forms of stroke or TIA (in words) ([3]; gemfibrozil 1200 mg/day): significant reduction
- Primary endpoint CHD death/nonfatal MI, rate in treatment group ([3]; gemfibrozil 1200 mg/day, median follow-up 5.1 years, placebo 22%): 17%
- Major adverse events (deaths from any cause and cancer monitored) ([3]; gemfibrozil 1200 mg/day, seven year study): not associated with any major adverse events
- Incidence rate: carotid endarterectomy ([3]; gemfibrozil group, placebo 3.5%): 1.3%
- Incidence rate: transient ischemia attack (TIA) ([3]; gemfibrozil group, placebo 4.2%): 1.7%
- Incidence rate: total reported stroke ([3]; gemfibrozil group, placebo 7.0%): 5.0%
- Incidence rate: hospitalization for congestive heart failure ([3]; gemfibrozil group, placebo 13.3%): 10.6%
- Reduction in combined endpoint of heart attacks, cardiac deaths, and strokes ([3]; gemfibrozil vs placebo, p=0.0011): 24%
- Relative risk reduction, CHD death/nonfatal MI (heart attacks and cardiac deaths) ([3]; gemfibrozil vs placebo, listed as GEMFIBROZIL): 22%
- Relative risk reduction, CHD death/nonfatal MI (heart attacks and cardiac deaths) ([3]; gemfibrozil vs placebo, listed as gemfibrozil): 22%
- Number of patients needed to be treated to prevent one heart attack, cardiac death, or stroke ([3]; over a time period (e.g., between 1 and 5 years)): 18 patients
